Measurements taken from US20240368164A1, “PURINE NUCLEOSIDES, THEIR INTERMEDIATES, AND METHODS OF PREPARATION THEREOF” (Astrocyle Pharmaceuticals, Inc., priority 2021, published 2024).

Key:
[1] = Plasma protein binding (free fraction); assay type: in vitro ADME, mouse
Text: (§1) Example 3 of U.S. Pat. No. 9,789,131, which is incorporated herein by reference, describes assays for determining the plasma and brain free fraction of certain compounds such as I-1. Compounds described herein may be evaluated using such assays or similar variants thereof.

[2] = Nonspecific brain tissue binding (free fraction); assay type: in vitro ADME, mouse; conditions: brain tissue
Text: as §1

[3] = system: photothrombosis-induced stroke in mice; experiment: Mouse photothrombotic stroke model; assay type: in vivo; conditions: mouse, stroke
Description: Photothrombosis-induced Stroke: Photothrombosis is performed as described in Zheng et al 2010 (PloS One 5 (12): e14401). In brief, Rose Bengal is a fluorescent dye that when injected into the vasculature and excited, generates singlet oxygen that damages the endothelial wall and induces a local thrombosis (clot). Using this technique, mice are given a 0.1 mL tail-vein injection of sterilized Rose Bengal (RB, Sigma, U.S.A.) in artificial cerebral spinal fluid (aCSF). The RB concentration is 20 mg/mL. A cortical region is centered in the imaging field and illuminated with a green laser (543 nm, 5 mW) using a 0.8-NA 40× water-immersion objective (Nikon, Tokyo). The clot formation is monitored in real time until the targeted vessel or downstream capillaries are firmly occluded. Stable clots are subsequently identified by a non-fluorescent vessel segmentation ending with highly fluorescent regions. […] Treatments, at doses such as 0.5 μmol/kg are introduced via intraperitoneal injections (i.p.). For experiments with A3 receptor antagonist MRS1523, mice are administered intraperitoneal injections (2 mg/kg) at the 0 and 2 hour timepoints to ensure receptor antagonism throughout the course of the study.
Animals and Photothrombosis-induced Stroke: Stroke is performed as described in Zheng et al 2010 (PloS One 5 (12): e14401). Female C57Bl/6 mice (4-6 months) are used in this study. From the methods of this manuscript: Mice are anesthetized at 3% isoflurane with 100% oxygen and subsequently maintained at 1% isoflurane through a nosecone. Depth of anesthesia is monitored and regulated according to vital signs, pinch withdrawal and eye blinks. Body temperature is maintained at 37° C. by a feedback-controlled heating pad (Gaymar T/Pump). Vital signs including oxygen saturation, respiratory rate, and heart rate are continuously monitored by using the MouseOx system (STARR Life Sciences). […]
Post photothrombotic infarction evaluation. The size of cerebral infarcts is evaluated using 2,3,5-Triphenyltetrazolium chloride (TTC) staining as described in Zheng et al 2010 (PloS One 5 (12): e14401). […]

[4] = system: traumatic brain injury (TBI) in mice; experiment: Mouse traumatic brain injury (TBI) model; assay type: in vivo
Description: Animals and traumatic brain injury (TBI): TBI is performed with a controlled closed skull injury model as described in Talley-Watts et al. 2012 (J. Neurotrauma 30, 55-66). Following the method described therein, a pneumatic impact device is used to generate a moderate TBI leaving the skull and dura matter intact. To achieve this, C57BL/6 mice are anesthetized with isoflurane (3% induction, 1% maintenance) in 100% oxygen. A body temperature of 37° C. is maintained using a temperature-controlled heated surgical table. A small midline incision is made on the scalp using aseptic surgical techniques. A 5 mm stainless steel disc is positioned on the skull and fixed using superglue on the right parietal bone between bregma and lamda over the somatosensory cortex. The mouse is then positioned on a stage directly under the pneumatic impact tip. […] Mice are placed in a Thermo-Intensive Care Unit (Braintree Scientific model FV-1; 37° C.; 27% O2) and monitored until fully awake and moving freely. […]
Western Blot Analysis for GFAP: At selected survival times, mice are anesthetized under isoflurane and sacrificed. […] The homogenate is transferred to a 2 mL tube and centrifuged at 1000 g for 10 minutes at 4° C. and the supernatant is collected and analyzed. Protein concentration is determined by the BCA assay using a 1:50 dilution. […]

Human A3R = molecular target: T1, Human A3R (Homo sapiens, UniProt P0DMS8); experiment: Radioligand binding at human A3 adenosine receptor ([125I]I-AB-MECA, CHO cell membranes); conditions: n = 1; read-out: Affinity (nM) at Human A3R
T1 construct: expressed in transfected cells
T1 sequence (P0DMS8 1-318): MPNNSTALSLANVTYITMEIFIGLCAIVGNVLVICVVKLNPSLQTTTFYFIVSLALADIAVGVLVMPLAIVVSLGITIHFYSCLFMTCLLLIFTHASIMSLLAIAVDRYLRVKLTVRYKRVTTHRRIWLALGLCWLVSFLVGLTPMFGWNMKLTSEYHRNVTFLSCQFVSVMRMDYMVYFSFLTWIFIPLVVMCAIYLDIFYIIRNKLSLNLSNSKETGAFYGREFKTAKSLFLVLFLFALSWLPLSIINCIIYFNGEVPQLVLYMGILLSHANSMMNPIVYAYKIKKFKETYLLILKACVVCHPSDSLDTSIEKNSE
Description: [3H]R—N^6-Phenylisopropyladenosine ([3H]R-PIA, 63 Ci/mmol), [^3H](2-[p-(2-carboxyethyl)phenyl-ethylamino]-5′-N-ethylcarboxamido-adenosine) ([^3H]CGS21680, 40.5 Ci/mmol) and [^125I]N^6-(4-amino-3-iodobenzyl)adenosine-5′-N-methyluronamide ([^125I]I-AB-MECA, 2200 Ci/mmol) were purchased from Perkin-Elmer Life and Analytical Science (Boston, MA). Test compounds were prepared as 5 mM stock solutions in DMSO and stored frozen.
Cell Culture and Membrane Preparation—CHO cells stably expressing the recombinant hA1 and hA3ARs and HEK293 cells stably expressing the hA2AAR were cultured in Dulbecco's modified Eagle medium (DMEM) and F12 (1:1) supplemented with 10% fetal bovine serum, 100 units/mL penicillin, 100 μg/mL streptomycin, and 2 μmol/mL glutamine. In addition, 800 μg/mL geneticin was added to the A2A media, while 500 μg/mL hygromycin was added to the A1 and A3 media. After harvesting, cells were homogenized and suspended in PBS. Cells were then centrifuged at 240 g for 5 min, and the pellet was resuspended in 50 mM Tris-HCl buffer (pH 7.5) containing 10 mM MgCl2. The suspension was homogenized and was then ultra-centrifuged at 14,330 g for 30 min at 4° C. The resultant pellets were resuspended in Tris buffer, incubated with adenosine deaminase (3 units/mL) for 30 min at 37° C. The suspension was homogenized with an electric homogenizer for 10 sec, pipetted into 1 mL vials and then stored at −80° C. until the binding experiments. The protein concentration was measured using the BCA Protein Assay Kit from Pierce Biotechnology, Inc. (Rockford, IL).
Binding assays: Into each tube in the binding assay was added 50 μL of increasing concentrations of the test ligand in Tris-HCl buffer (50 mM, pH 7.5) containing 10 mM MgCl2, 50 μL of the appropriate agonist radioligand, and finally 100 μL of membrane suspension. For the A1AR (22 μg of protein/tube) the radioligand used was [^3H]R-PIA (final concentration of 3.5 nM). For the A2AAR (20 μg/tube) the radioligand used was [^3H]CGS21680 (10 nM). For the A3AR ([…]) the radioligand used was [^125I]I-AB-MECA (0.34 nM). Nonspecific binding was determined using a final concentration of 10 μM NECA diluted with the buffer. The mixtures were incubated at 25° C. for 60 min in a shaking water bath. Binding reactions were terminated by filtration through Brandel GF/B filters under a reduced pressure using a M-24 cell harvester (Brandel, Gaithersburg, MD). Filters were washed three times with 3 mL of 50 mM ice-cold Tris-HCl buffer (pH 7.5). Filters for A1 and A2AAR binding were placed in scintillation vials containing 5 mL of Hydrofluor scintillation buffer and counted using a Perkin Elmer Liquid Scintillation Analyzer (Tri-Carb 2810TR). Filters for A3AR binding were counted using a Packard Cobra II T-counter. The Ki values were determined using GraphPad Prism for all assays.
A3R binding of selected compounds. Using methods described herein, the affinity of selected compounds at the A3 receptor was measured.

P2Y1R = P2Y1R (Homo sapiens, UniProt P47900); conditions: reference 6; cited from earlier work
Sequence of P2Y1R (P47900 whole entry): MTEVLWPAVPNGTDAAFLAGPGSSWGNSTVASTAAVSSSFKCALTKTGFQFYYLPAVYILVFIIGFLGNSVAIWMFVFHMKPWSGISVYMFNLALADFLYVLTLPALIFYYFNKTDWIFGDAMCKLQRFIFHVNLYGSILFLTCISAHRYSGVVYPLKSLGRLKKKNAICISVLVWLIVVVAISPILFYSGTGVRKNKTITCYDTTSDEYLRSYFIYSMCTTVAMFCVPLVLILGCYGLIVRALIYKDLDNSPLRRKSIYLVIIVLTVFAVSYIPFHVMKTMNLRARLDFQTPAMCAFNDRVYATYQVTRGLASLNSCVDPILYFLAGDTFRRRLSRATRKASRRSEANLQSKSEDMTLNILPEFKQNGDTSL

A3AR = molecular target: T2, A3AR (Homo sapiens, UniProt P0DMS8); conditions: reference 5; cited from earlier work
T2 sequence (P0DMS8 1-318): T1 sequence (P0DMS8 1-318)

Row | SMILES | Ki (Human A3R) [nM] | other results
1 | CNC(=O)[C@H]1O[C@@H](n2cnc3c(NCc4cccc(I)c4)nc(Cl)nc32)[C@H](O)[C@@H]1O [Cl-IB-MECA, reference compound] | – | free (unbound) fraction in plasma [1]: 0.002; free (unbound) fraction in brain [2]: 0.002; efficacy in mouse photothrombotic stroke model [3]: inactive; efficacy in mouse TBI model [4]: weakly active
2 | CCSc1nc(N)c2ncn([C@H]3[C@H](O)[C@H](O)[C@]4(CO)C[C@H]34)c2n1 [Compound I-2, (1R,2R,3S,4R,5S)-4-(6-Amino-2-(ethylthio)-9H-purin-9-yl)-1-(hydroxymethyl)bicyclo[3.1.0]hexane-2,3-diol] | 909 | –
3 | CCCCCCSc1nc(N)c2ncn([C@H]3[C@H](O)[C@H](O)[C@]4(CO)C[C@H]34)c2n1 [Compound I-3, (1R,2R,3S,4R,5S)-4-(6-Amino-2-(hexylthio)-9H-purin-9-yl)-1-(hydroxymethyl)bicyclo[3.1.0]hexane-2,3-diol] | 504 | –
4 | Nc1nc(SC2CCCCC2)nc2c1ncn2[C@H]1[C@H](O)[C@H](O)[C@]2(CO)C[C@H]12 [Compound I-4, (1R,2R,3S,4R,5S)-4-(6-Amino-2-(cyclohexylthio)-9H-purin-9-yl)-1-(hydroxymethyl)bicyclo[3.1.0]hexane-2,3-diol] | 1170 | –
5 | Nc1nc(SCc2ccccc2)nc2c1ncn2[C@H]1[C@H](O)[C@H](O)[C@]2(CO)C[C@H]12 [Compound I-5, (1R,2R,3S,4R,5S)-4-(6-Amino-2-(benzylthio)-9H-purin-9-yl)-1-(hydroxymethyl)bicyclo[3.1.0]hexane-2,3-diol] | 55 | –
6 | Nc1nc(SCCc2ccccc2)nc2c1ncn2[C@H]1[C@H](O)[C@H](O)[C@]2(CO)C[C@H]12 [Compound I-6, (1R,2R,3S,4R,5S)-4-(6-Amino-2-(phenethylthio)-9H-purin-9-yl)-1-(hydroxymethyl)bicyclo[3.1.0]hexane-2,3-diol] | 379 | –
7 | COc1nc(N)c2ncn([C@H]3[C@H](O)[C@H](O)[C@]4(CO)C[C@H]34)c2n1 [Compound I-7, (1R,2R,3S,4R,5S)-4-(6-Amino-2-methoxy-9H-purin-9-yl)-1-(hydroxymethyl)bicyclo[3.1.0]hexane-2,3-diol] | 1050 | –
8 | CSc1nc(N)c2ncn([C@H]3C(O)[C@@H](O)[C@]4(COP(=O)(O)OP(=O)(O)O)C[C@H]34)c2n1 (stereo partly drawn) [MRS2365] | – | Ki (P2Y1R): 0.4 nM
9 | CNC(=O)[C@@]12C[C@@H]1[C@@H](n1cnc3c(NCc4cccc(Cl)c4)nc(SC)nc31)C(O)[C@H]2O (stereo partly drawn) [MRS3611] | – | Ki (A3AR): 1.5 nM
